Measured values published in BindingDB's records for doi:10.1021/jm101144f (Dana-Farber Cancer Institute, 2010).

Test: Inhibition of PI3Kalpha in human PC3 cells expressing Akt1 S473D mutant assessed as phosphorylation of Akt Thr308 by immunoblotting

Q: With `COCCC(=O)N1CCN(c2ccc(Nc3ccnc4ccc(-c5cnc6ccccc6c5)cc34)cc2C(F)(F)F)CC1` [1-(4-(4-([3,6'-biquinolin]-4'-ylamino)-2-(trifluoromethyl)phenyl)piperazin-1-yl)-3-methoxypropan-1-one] as the compound, how does the IC50 read?
A: > 300 nM
